In US6979686B1, “Substituted pyrazoles as p38 kinase inhibitors” (Pharmacia Corporation, priority 2001, dated 2005):
Read-outs that look alike come from different tables or passages of the source.

Target: T1, human p38 kinase alpha (Homo sapiens, UniProt Q16539)
T1 construct: GST (N, cleaved yes); made in house; host or cells: E. coli DH10B
Assay: p38 kinase in vitro assay, phosphorylation of biotinylated PHAS-I with 32P-ATP
Assay type: biochemical
Settings: for IC50: read-out: P38 alpha kinase IC50

[1] = in vitro P38-alpha kinase inhibition

T1 sequence (Q16539 whole entry): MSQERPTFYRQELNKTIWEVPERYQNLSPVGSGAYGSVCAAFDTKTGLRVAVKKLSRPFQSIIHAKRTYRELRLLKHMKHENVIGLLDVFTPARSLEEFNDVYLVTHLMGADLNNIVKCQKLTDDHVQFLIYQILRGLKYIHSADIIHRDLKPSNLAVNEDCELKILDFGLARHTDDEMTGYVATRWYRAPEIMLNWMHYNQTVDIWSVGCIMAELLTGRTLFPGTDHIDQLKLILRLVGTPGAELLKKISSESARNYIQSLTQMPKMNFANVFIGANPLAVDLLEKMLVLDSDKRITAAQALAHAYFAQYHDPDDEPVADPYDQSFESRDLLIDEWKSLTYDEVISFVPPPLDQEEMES

CC(C)c1cc(C(C)C)c(C(=O)NC(C)c2[nH]nc(-c3ccc(F)cc3)c2-c2ccncc2)c(C(C)C)c1 (stereo not shown) [Example B-0674]
IC50 [1]: 2810 nM

COC(=O)CCCNC(=O)Cn1nc(-c2ccc(F)cc2)c(-c2ccncc2)c1C [Example B-2295]
IC50 (in vitro P38-alpha kinase): 1790 nM

CC(NC(=O)c1ccccc1Cl)c1[nH]nc(-c2ccc(F)cc2)c1-c1ccncc1 (stereo not shown) [Example B-0691]
IC50 [1]: 160 nM

Cc1c(-c2ccncc2)c(-c2ccc(F)cc2)nn1CC(=O)Nc1ccccc1Oc1ccc(Cl)cc1 [Example B-2449]
P38 alpha kinase IC50, uM or % inhib @ conc. (uM): % inhib (@ 10.0 uM): 86.0% @

O=C(O)c1ccccc1S(=O)(=O)NCc1[nH]nc(-c2ccc(F)cc2)c1-c1ccncc1 [Example B-0228]
IC50 (in vitro P38-alpha kinase): 150 nM

Cc1c(-c2ccncc2)c(-c2ccc(F)cc2)nn1CC(=O)NC1CCCCC1C1CCCCC1 (stereo not shown) [Example B-2346]
P38 alpha kinase % inhib @ conc. (@ 10.0 uM): 45.0% @

COc1ccc(S(=O)(=O)NCCc2[nH]nc(-c3ccc(F)cc3)c2-c2ccncc2)cc1OC [Example B-1028]
P38 alpha kinase % inhib @ conc. (uM) (@ 1.0 uM): 70.0% @

O=C(c1ccc(F)c(F)c1)N1CCC(c2[nH]nc(-c3ccc(F)cc3)c2-c2ccncc2)CC1 [Example B-1414]
IC50 (in vitro P38-alpha kinase): 25 nM

O=C(NC(Cc1ccccc1)c1[nH]nc(-c2ccc(F)cc2)c1-c1ccncc1)C1CCC1 (stereo not shown) [Example B-0836]
IC50 [1]: 1240 nM

CC(NS(=O)(=O)c1cccc(C(F)(F)F)c1)c1[nH]nc(-c2ccc(F)cc2)c1-c1ccncc1 (stereo not shown) [Example B-0648]
IC50 [1]: < 100 nM

COCC(=O)NCCc1[nH]nc(-c2ccc(F)cc2)c1-c1ccncc1 [Example B-0994]
P38 alpha kinase % inhib @ conc. (uM) (@ 1.0 uM): 55.0% @

O=C(Cc1cccs1)NCCCc1[nH]nc(-c2ccc(F)cc2)c1-c1ccncc1 [Example B-1228]
P38 alpha kinase % inhib @ conc. (@ 1.0 uM): 90.0% @

Cc1cc(C)c(S(=O)(=O)NC(C)c2[nH]nc(-c3ccc(F)cc3)c2-c2ccncc2)c(C)c1 (stereo not shown) [Example B-0616]
IC50 [1]: 380 nM

O=S(=O)(c1ccc(Cl)cc1Cl)N1CCC(c2[nH]nc(-c3ccc(F)cc3)c2-c2ccncc2)CC1 [Example B-1449]
IC50 (in vitro P38-alpha kinase): 1610 nM

COC(=O)CCNC(=O)Cn1nc(-c2ccc(F)cc2)c(-c2ccncc2)c1C [Example B-2301]
IC50 (in vitro P38-alpha kinase): 180 nM

O=C(OCc1ccccc1)N1CCC(c2[nH]nc(-c3ccc(F)cc3)c2-c2ccncc2)CC1 [Example B-1428]
IC50 (in vitro P38-alpha kinase): < 100 nM

C[C@@H](NS(=O)(=O)c1ccc(Br)cc1)c1[nH]nc(-c2ccc(F)cc2)c1-c1ccncc1 [Example B-0432]
IC50 [1]: < 100 nM

N#Cc1ccc(S(=O)(=O)NCCc2[nH]nc(-c3ccc(F)cc3)c2-c2ccncc2)cc1 [Example B-1107]
IC50 [1]: 57 nM

COc1ccc(C(=O)NCc2[nH]nc(-c3ccc(F)cc3)c2-c2ccncc2)cc1 [Example B-0039]
inhibition at 1 µM (@ 1.0 uM, read-out: P38 alpha kinase % inhib @ conc.): 89%

CCCOC(=O)N1CCC(c2[nH]nc(-c3ccc(F)cc3)c2-c2ccncc2)CC1 [Example B-1423]
IC50 (in vitro P38-alpha kinase): 1580 nM

N#Cc1ccccc1S(=O)(=O)NCCc1[nH]nc(-c2ccc(F)cc2)c1-c1ccncc1 [Example B-1078]
IC50 [1]: 260 nM

Cc1cccc(C(=O)NCCCc2[nH]nc(-c3ccc(F)cc3)c2-c2ccncc2)c1 [Example B-1344]
IC50 (in vitro P38-alpha kinase): 14 nM

O=S(=O)(NC(Cc1ccccc1)c1[nH]nc(-c2ccc(F)cc2)c1-c1ccncc1)C(F)(F)F (stereo not shown) [Example B-0758]
IC50 [1]: 1500 nM

Cc1c(-c2ccncc2)c(-c2ccc(F)cc2)nn1CC(=O)NC(C)CCc1ccccc1 (stereo not shown) [Example B-2340]
P38 alpha kinase % inhib @ conc. (@ 10.0 uM): 35.0% @

O=C(c1cccc(F)c1)N1CCC(c2[nH]nc(-c3ccc(F)cc3)c2-c2ccncc2)CC1 [Example B-1393]
IC50 (in vitro P38-alpha kinase): 3170 nM

O=C(NCCCc1[nH]nc(-c2ccc(F)cc2)c1-c1ccncc1)NCCc1ccccc1 [Example B-1221]
P38 alpha kinase % inhib @ conc. (@ 1.0 uM): 82.0% @

CC(NS(=O)(=O)Cc1ccccc1)c1[nH]nc(-c2ccc(F)cc2)c1-c1ccncc1 (stereo not shown) [Example B-0566]
IC50 [1]: < 100 nM

CC(Oc1ccccc1)C(=O)NC(C)c1[nH]nc(-c2ccc(F)cc2)c1-c1ccncc1 (stereo not shown) [Example B-0558]
IC50 [1]: 850 nM

Cc1c(-c2ccncc2)c(-c2ccc(F)cc2)nn1CC(=O)NCCC1=CCCCC1 [Example B-2316]
IC50 (in vitro P38-alpha kinase): 460 nM

Cc1c(-c2ccncc2)c(-c2ccc(F)cc2)nn1CC(=O)NCCCCc1ccccc1 [Example B-2300]
IC50 (in vitro P38-alpha kinase): 70 nM

CCOC(=O)CC(NC(=O)Cn1nc(-c2ccc(F)cc2)c(-c2ccncc2)c1C)C(=O)OCC (stereo not shown) [Example B-2352]
P38 alpha kinase % inhib @ conc. (@ 10.0 uM): 37.0% @

Cc1c(-c2ccncc2)c(-c2ccc(F)cc2)nn1CC(=O)NCC(=O)OC(C)(C)C [Example B-2309]
IC50 (in vitro P38-alpha kinase): 290 nM

Cc1ccc(S(=O)(=O)NC(Cc2ccccc2)c2[nH]nc(-c3ccc(F)cc3)c2-c2ccncc2)cc1 (stereo not shown) [Example B-0721]
IC50 [1]: 3800 nM

Cc1ccc(C)c(C(=O)c2ccccc2NC(=O)Cn2nc(-c3ccc(F)cc3)c(-c3ccncc3)c2C)c1 [Example B-2443]
P38 alpha kinase IC50, uM or % inhib @ conc. (uM): % inhib (@ 10.0 uM): 84.0% @

CC(NS(=O)(=O)c1ccc(S(=O)(=O)c2ccccc2)s1)c1[nH]nc(-c2ccc(F)cc2)c1-c1ccncc1 (stereo not shown) [Example B-0665]
IC50 [1]: 470 nM

O=S(=O)(NCCCc1[nH]nc(-c2ccc(F)cc2)c1-c1ccncc1)c1ccc(F)cc1F [Example B-1195]
P38 alpha kinase % inhib @ conc. (uM) (@ 1.0 uM): 52.0% @

CC(=O)OCC(=O)NC(Cc1ccccc1)c1[nH]nc(-c2ccc(F)cc2)c1-c1ccncc1 (stereo not shown) [Example B-0829]
IC50 [1]: 610 nM

Cc1ccc(S(=O)(=O)NCCCc2[nH]nc(-c3ccc(F)cc3)c2-c2ccncc2)cc1 [Example B-1204]
P38 alpha kinase % inhib @ conc. (@ 1.0 uM): 68.0% @

COCCN(C)C(=O)Cn1nc(-c2ccc(F)cc2)c(-c2ccncc2)c1C [Example B-2374]
P38 alpha kinase % inhib @ conc. (@ 10.0 uM): 35.0% @

COc1ccc(NC(=O)NCCCc2[nH]nc(-c3ccc(F)cc3)c2-c2ccncc2)c(OC)c1 [Example B-1227]
P38 alpha kinase % inhib @ conc. (@ 1.0 uM): 83.0% @

COc1ccc(Br)cc1S(=O)(=O)NCCc1[nH]nc(-c2ccc(F)cc2)c1-c1ccncc1 [Example B-1102]
IC50 [1]: 35 nM

Cc1ccc(C(=O)NCCc2[nH]nc(-c3ccc(F)cc3)c2-c2ccncc2)cc1 [Example B-1002]
P38 alpha kinase % inhib @ conc. (uM) (@ 1.0 uM): 70.0% @

O=C(NCCCc1[nH]nc(-c2ccc(F)cc2)c1-c1ccncc1)[C@H]1CCCN1 [Example B-1233]
P38 alpha kinase % inhib @ conc. (@ 1.0 uM): 85.0% @

O=C(c1ccno1)N1CCC(c2[nH]nc(-c3ccc(F)cc3)c2-c2ccncc2)CC1 [Example B-1367]
IC50 (in vitro P38-alpha kinase): < 100 nM

CCCCC(C)NC(=O)Cn1nc(-c2ccc(F)cc2)c(-c2ccncc2)c1C (stereo not shown) [Example B-2319]
P38 alpha kinase % inhib @ conc. (@ 10.0 uM): 75.0% @

CC(=O)OC(C)(C)C(=O)NCCCc1[nH]nc(-c2ccc(F)cc2)c1-c1ccncc1 [Example B-1163]
P38 alpha kinase % inhib @ conc. (uM) (@ 1.0 uM): 74.0% @

O=C(c1cccc(Br)c1)N1CCC(c2[nH]nc(-c3ccc(F)cc3)c2-c2ccncc2)CC1 [Example B-1365]
IC50 (in vitro P38-alpha kinase): 170 nM

Cc1c(-c2ccncc2)c(-c2ccc(F)cc2)nn1CC(=O)NC(C)c1cccc2ccccc12 (stereo not shown) [Example B-2331]
P38 alpha kinase % inhib @ conc. (@ 10.0 uM): 74.0% @

CN(C)S(=O)(=O)NCCCc1[nH]nc(-c2ccc(F)cc2)c1-c1ccncc1 [Example B-1292]
IC50 (in vitro P38-alpha kinase): 10 nM

CC(NS(=O)(=O)c1ccccc1C(F)(F)F)c1[nH]nc(-c2ccc(F)cc2)c1-c1ccncc1 (stereo not shown) [Example B-0635]
IC50 [1]: 150 nM

CC(NS(=O)(=O)c1ccc(F)cc1F)c1[nH]nc(-c2ccc(F)cc2)c1-c1ccncc1 (stereo not shown) [Example B-0567]
IC50 [1]: 140 nM

O=C(NC(Cc1ccccc1)c1[nH]nc(-c2ccc(F)cc2)c1-c1ccncc1)c1cccc(Br)c1 (stereo not shown) [Example B-0838]
IC50 [1]: 3100 nM

Cc1ccc(C(=O)NCCCc2[nH]nc(-c3ccc(F)cc3)c2-c2ccncc2)cc1 [Example B-1323]
IC50 (in vitro P38-alpha kinase): 13 nM

Cc1c(-c2ccncc2)c(-c2ccc(F)cc2)nn1CC(=O)Nc1cc(C(F)(F)F)cc(C(F)(F)F)c1 [Example B-2425]
P38 alpha kinase IC50, uM or % inhib @ conc. (uM): % inhib (@ 10.0 uM): 79.0% @

CC(NC(=O)c1ccc(F)c(F)c1)c1[nH]nc(-c2ccc(F)cc2)c1-c1ccncc1 (stereo not shown) [Example B-0678]
IC50 [1]: 380 nM

O=C(Nc1cccc(F)c1)NC(Cc1ccccc1)c1[nH]nc(-c2ccc(F)cc2)c1-c1ccncc1 (stereo not shown) [Example B-0785]
IC50 [1]: 23000 nM

COC(=O)C(Cc1cn(C)cn1)NC(=O)Cn1nc(-c2ccc(F)cc2)c(-c2ccncc2)c1C (stereo not shown) [Example B-2361]
P38 alpha kinase % inhib @ conc. (@ 10.0 uM): 19.0% @

COc1ccc(NC(=O)NC(Cc2ccccc2)c2[nH]nc(-c3ccc(F)cc3)c2-c2ccncc2)c(OC)c1 (stereo not shown) [Example B-0744]
IC50 [1]: 23000 nM

O=S(=O)(NCCCc1[nH]nc(-c2ccc(F)cc2)c1-c1ccncc1)c1ccc2ccccc2c1 [Example B-1245]
IC50 (in vitro P38-alpha kinase): 490 nM

Cc1c(-c2ccncc2)c(-c2ccc(F)cc2)nn1CC(=O)NC1CCN(Cc2ccccc2)C1 (stereo not shown) [Example B-2338]
P38 alpha kinase % inhib @ conc. (@ 10.0 uM): 73.0% @

O=S(=O)(c1cc(Cl)cc(Cl)c1)N1CCC(c2[nH]nc(-c3ccc(F)cc3)c2-c2ccncc2)CC1 [Example B-1453]
IC50 (in vitro P38-alpha kinase): 2530 nM

NC(=O)NCCCc1[nH]nc(-c2ccc(F)cc2)c1-c1ccncc1 [Example B-1207]
P38 alpha kinase % inhib @ conc. (@ 1.0 uM): 90.0% @

O=C(NC(Cc1ccccc1)c1[nH]nc(-c2ccc(F)cc2)c1-c1ccncc1)C1CCCC1 (stereo not shown) [Example B-0852]
IC50 [1]: 1020 nM

O=S(=O)(NC(Cc1ccccc1)c1[nH]nc(-c2ccc(F)cc2)c1-c1ccncc1)c1ccc(F)cc1F (stereo not shown) [Example B-0757]
IC50 [1]: 540 nM

CC(NC(=O)c1c(F)cccc1F)c1[nH]nc(-c2ccc(F)cc2)c1-c1ccncc1 (stereo not shown) [Example B-0700]
IC50 [1]: 240 nM

O=C(NCCCc1[nH]nc(-c2ccc(F)cc2)c1-c1ccncc1)c1ccc(I)cc1 [Example B-1168]
P38 alpha kinase % inhib @ conc. (uM) (@ 1.0 uM): 66.0% @

Cc1ccc(S(=O)(=O)NC(Cc2ccccc2)C(=O)NCCc2[nH]nc(-c3ccc(F)cc3)c2-c2ccncc2)cc1 (stereo not shown) [Example B-1011]
P38 alpha kinase % inhib @ conc. (uM) (@ 1.0 uM): 72.0% 2

CC(C)COC(=O)N1CCC(c2[nH]nc(-c3ccc(F)cc3)c2-c2ccncc2)CC1 [Example B-1424]
IC50 (in vitro P38-alpha kinase): 860 nM

CC(NC(=O)c1ccc(F)c(C(F)(F)F)c1)c1[nH]nc(-c2ccc(F)cc2)c1-c1ccncc1 (stereo not shown) [Example B-0689]
IC50 [1]: 14600 nM

O=C(NCCc1[nH]nc(-c2ccc(F)cc2)c1-c1ccncc1)c1cccc(C(F)(F)F)c1 [Example B-1123]
IC50 [1]: 2930 nM
